Experimental data as given in article PMC7153038, “Pharmacologic inhibition of RGD‐binding integrins ameliorates fibrosis and improves function following kidney injury” (Physiological Reports, 2020).
Read-outs that look alike come from different tables or passages of the source.

Experiments:
[1] = tested on: Collagen 1 protein in kidney; assay: aristolochic acid kidney injury model, Collagen 1 Western blot; format: in vivo, mouse; conditions: AA-injured, 100 mg/kg/day s.c. minipump
Description: Alzet osmotic minipumps (Cupertino, CA) were implanted subcutaneously in 8‐ to 10‐week‐old wild‐type male ICR outbred mice (Envigo) one day prior to induction of kidney injury to deliver vehicle (DMSO/H2O 1:1) or CWHM‐12 at a dose of 100 mg/kg per day. A single 5 mg/kg dose of aristolochic acid I sodium salt (Sigma‐Aldrich, A9451) in PBS was administered intraperitoneally to induce kidney injury, and mice were monitored daily for 27 days thereafter. Control (uninjured) mice were injected with an equal volume of PBS. Blood was obtained by maxillary vein puncture on days 0, 5 (peak injury), and 28 (study endpoint). For testing CWHM‐680, oral gavage (100 mg/kg per day) was started one day prior to injection of aristolochic acid I sodium salt and continued once daily until the study endpoint. Blood was obtained at days 0, 7, and 23 (study endpoint). […] Serum creatinine was measured by liquid chromatography–mass spectrometry (LC–MS/MS) at the University of Alabama O’Brien Center Bioanalytical Core. CWHM‐12 and CWHM‐680 concentrations were measured in plasma samples by liquid chromatography–tandem mass spectrometry (LC/MS/MS) using compound spiked into control plasma as a standard. All experiments were performed under protocols approved by the Institutional Animal Care and Use Committee at St. Louis University. […]

[2] = tested on: aristolochic acid-induced kidney injury in ICR mice; assay: aristolochic acid kidney injury model, serum creatinine; format: in vivo, mouse; conditions: AA-injured mice, 100 mg/kg/day s.c. minipump; vehicle 0.32
Description: (§1) Alzet osmotic minipumps (Cupertino, CA) were implanted subcutaneously in 8‐ to 10‐week‐old wild‐type male ICR outbred mice (Envigo) one day prior to induction of kidney injury to deliver vehicle (DMSO/H2O 1:1) or CWHM‐12 at a dose of 100 mg/kg per day. A single 5 mg/kg dose of aristolochic acid I sodium salt (Sigma‐Aldrich, A9451) in PBS was administered intraperitoneally to induce kidney injury, and mice were monitored daily for 27 days thereafter. Control (uninjured) mice were injected with an equal volume of PBS. Blood was obtained by maxillary vein puncture on days 0, 5 (peak injury), and 28 (study endpoint). For testing CWHM‐680, oral gavage (100 mg/kg per day) was started one day prior to injection of aristolochic acid I sodium salt and continued once daily until the study endpoint. Blood was obtained at days 0, 7, and 23 (study endpoint). […] Serum creatinine was measured by liquid chromatography–mass spectrometry (LC–MS/MS) at the University of Alabama O’Brien Center Bioanalytical Core. CWHM‐12 and CWHM‐680 concentrations were measured in plasma samples by liquid chromatography–tandem mass spectrometry (LC/MS/MS) using compound spiked into control plasma as a standard. All experiments were performed under protocols approved by the Institutional Animal Care and Use Committee at St. Louis University.

[3] = tested on: non‐RGD‐binding integrins; set-up: method as in Henderson et al., 2013; conditions: ref Henderson et al., 2013; cited from earlier work
[4] = tested on: aristolochic acid-induced kidney fibrosis in ICR mice; assay: aristolochic acid kidney injury model, kidney histology and immunofluorescence; format: in vivo, mouse; conditions: AA-injured, 100 mg/kg/day s.c. minipump
Description: as §1
Harvested kidneys were bisected and harvested for RNA and protein, and fixed in 4% PFA for antibody staining and histological staining with Sirius red or Masson's trichrome. Paraffin sections (4 µm) were stained with Sirius red or Masson trichrome and imaged with polarized light and bright‐field illumination. For immunofluorescence, 7‐μm frozen sections were washed with ice‐cold 100% methanol, boiled in 10 mM citric acid (pH 6) for 20 min, and incubated with primary antibodies against αSMA (Millipore), PDGFR‐β (gift from B. Stallcup), or with biotin‐LTL (Vector Laboratories). Reactivity was detected using fluorescently labeled secondary antibodies. Sections were counterstained with DAPI (Sigma‐Aldrich), mounted in Mowiol 4–88 (Poly Sciences), and digital images acquired using a Leica DM5000B epifluorescence microscope and Leica DFC365FX camera. To quantify percent area stained for Sirius red, PDGFR‐β, and α‐SMA, we analyzed images from each of at least 4 biological replicates by batch processing using a macro created in Image J. Images were converted to 8‐bit grayscale, the threshold adjusted, and percent area measured. To quantify intact proximal tubules with brush borders, LTL‐positive tubules were counted by an observer blinded to the experimental conditions using Image J.

integrin α8β1 = target: T1, integrin α8β1 (Homo sapiens, UniProt P05556+P53708); assay: integrin α8β1-mediated attachment of transfected HEK-293 cells to mouse nephronectin; format: cell-based; conditions: mean and SD, at least 3 independent assays; transfected HEK-293, nephronectin; read-out: IC50, inhibition of α8β1-mediated cell attachment
T1 construct: expressed in transfected cells
T1 sequence (P53708 39-906 limits assumed): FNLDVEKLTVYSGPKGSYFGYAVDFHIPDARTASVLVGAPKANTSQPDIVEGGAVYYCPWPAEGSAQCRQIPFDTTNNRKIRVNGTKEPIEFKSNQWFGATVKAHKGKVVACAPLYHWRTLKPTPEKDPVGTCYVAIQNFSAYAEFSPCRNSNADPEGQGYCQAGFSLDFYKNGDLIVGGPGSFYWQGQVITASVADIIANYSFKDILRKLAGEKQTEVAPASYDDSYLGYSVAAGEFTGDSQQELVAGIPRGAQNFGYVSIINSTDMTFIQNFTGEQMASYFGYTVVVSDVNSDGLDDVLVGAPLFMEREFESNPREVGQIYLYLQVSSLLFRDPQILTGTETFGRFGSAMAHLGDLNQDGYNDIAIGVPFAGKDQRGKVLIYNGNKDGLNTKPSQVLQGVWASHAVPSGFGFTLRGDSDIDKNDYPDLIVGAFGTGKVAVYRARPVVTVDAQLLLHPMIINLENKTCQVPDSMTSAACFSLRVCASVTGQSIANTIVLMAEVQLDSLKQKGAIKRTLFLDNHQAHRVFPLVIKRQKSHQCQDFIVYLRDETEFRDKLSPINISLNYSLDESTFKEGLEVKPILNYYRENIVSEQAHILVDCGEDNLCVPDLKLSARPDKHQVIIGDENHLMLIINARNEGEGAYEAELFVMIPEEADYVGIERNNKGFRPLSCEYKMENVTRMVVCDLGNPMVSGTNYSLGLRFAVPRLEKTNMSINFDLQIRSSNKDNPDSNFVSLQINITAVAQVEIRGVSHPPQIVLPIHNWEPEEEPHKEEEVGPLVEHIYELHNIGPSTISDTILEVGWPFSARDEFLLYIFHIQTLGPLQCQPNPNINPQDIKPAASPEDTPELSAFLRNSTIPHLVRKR
T1 sequence (P53708 907-1063 partner limits assumed): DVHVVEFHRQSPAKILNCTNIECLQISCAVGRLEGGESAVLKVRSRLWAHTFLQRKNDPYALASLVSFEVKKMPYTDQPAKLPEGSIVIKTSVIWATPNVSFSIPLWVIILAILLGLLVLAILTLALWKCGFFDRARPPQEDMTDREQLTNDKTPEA
T1 sequence (P05556 21-798): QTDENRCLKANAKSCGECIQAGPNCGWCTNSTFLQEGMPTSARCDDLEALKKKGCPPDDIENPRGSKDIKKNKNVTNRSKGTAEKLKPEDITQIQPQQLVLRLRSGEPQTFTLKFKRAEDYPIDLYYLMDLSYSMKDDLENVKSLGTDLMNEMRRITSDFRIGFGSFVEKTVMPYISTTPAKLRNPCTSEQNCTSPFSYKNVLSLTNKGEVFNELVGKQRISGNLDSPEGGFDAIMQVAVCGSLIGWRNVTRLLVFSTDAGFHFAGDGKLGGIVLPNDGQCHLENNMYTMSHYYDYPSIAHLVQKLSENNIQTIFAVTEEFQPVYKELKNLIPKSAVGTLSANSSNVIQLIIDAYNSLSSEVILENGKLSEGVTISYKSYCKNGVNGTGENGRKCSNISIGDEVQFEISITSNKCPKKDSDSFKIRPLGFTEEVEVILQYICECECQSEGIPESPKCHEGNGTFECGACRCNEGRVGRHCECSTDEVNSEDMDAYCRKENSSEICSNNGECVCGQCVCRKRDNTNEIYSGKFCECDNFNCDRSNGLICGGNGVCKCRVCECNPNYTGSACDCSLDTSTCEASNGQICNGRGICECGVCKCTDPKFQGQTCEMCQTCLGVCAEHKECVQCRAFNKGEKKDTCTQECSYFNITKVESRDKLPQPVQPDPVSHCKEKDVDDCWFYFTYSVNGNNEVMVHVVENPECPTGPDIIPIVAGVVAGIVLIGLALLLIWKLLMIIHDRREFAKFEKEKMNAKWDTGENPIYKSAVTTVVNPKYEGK
Description: (§2) The RGD peptidomimetic CWHM‐12 was synthesized as described in detail previously (Henderson et al., 2013). A close structural analog of this compound with improved oral bioavailability, CWHM‐680, was also synthesized at Saint Louis University. Potency for the compounds in blocking cell attachment mediated by integrins αvβ3, αvβ5, and αvβ6 was measured as previously described (Henderson et al., 2013). Potency for blocking cell attachment mediated by integrins αvβ1, αvβ8, and α8β1 was measured using modifications of this method which are briefly summarized as follows: To assess CWHM‐12 and CWHM‐680 effects on cellular αvβ1 function, we varied its concentration in an assay measuring binding of HEK‐293 cells, which naturally express this integrin (Nagarajan et al., 2007), to the surface of 96‐well plates coated with purified recombinant human TGFβ‐1 latency‐associated peptide (R&D Systems). To assess the effect on cellular αvβ8 function, we performed the assay with the same LAP ligand but with HEK‐293 cells which had been stably transfected to overexpress this integrin. To assess the effect on cellular α8β1 function, we performed the assay using HEK‐293 cells, which had been stably transfected to overexpress this integrin and used purified recombinant mouse nephronectin as the immobilized ligand (R&D Systems). […]

integrin αvβ6 = integrin αvβ6 (Homo sapiens, UniProt P06756+P18564); assay: integrin αvβ6-mediated cell attachment to ligand; format: cell-based; conditions: mean and SD, at least 3 independent assays, read-out: IC50, inhibition of αvβ6-mediated cell attachment
Sequence of integrin αvβ6 (P06756 31-889 limits assumed): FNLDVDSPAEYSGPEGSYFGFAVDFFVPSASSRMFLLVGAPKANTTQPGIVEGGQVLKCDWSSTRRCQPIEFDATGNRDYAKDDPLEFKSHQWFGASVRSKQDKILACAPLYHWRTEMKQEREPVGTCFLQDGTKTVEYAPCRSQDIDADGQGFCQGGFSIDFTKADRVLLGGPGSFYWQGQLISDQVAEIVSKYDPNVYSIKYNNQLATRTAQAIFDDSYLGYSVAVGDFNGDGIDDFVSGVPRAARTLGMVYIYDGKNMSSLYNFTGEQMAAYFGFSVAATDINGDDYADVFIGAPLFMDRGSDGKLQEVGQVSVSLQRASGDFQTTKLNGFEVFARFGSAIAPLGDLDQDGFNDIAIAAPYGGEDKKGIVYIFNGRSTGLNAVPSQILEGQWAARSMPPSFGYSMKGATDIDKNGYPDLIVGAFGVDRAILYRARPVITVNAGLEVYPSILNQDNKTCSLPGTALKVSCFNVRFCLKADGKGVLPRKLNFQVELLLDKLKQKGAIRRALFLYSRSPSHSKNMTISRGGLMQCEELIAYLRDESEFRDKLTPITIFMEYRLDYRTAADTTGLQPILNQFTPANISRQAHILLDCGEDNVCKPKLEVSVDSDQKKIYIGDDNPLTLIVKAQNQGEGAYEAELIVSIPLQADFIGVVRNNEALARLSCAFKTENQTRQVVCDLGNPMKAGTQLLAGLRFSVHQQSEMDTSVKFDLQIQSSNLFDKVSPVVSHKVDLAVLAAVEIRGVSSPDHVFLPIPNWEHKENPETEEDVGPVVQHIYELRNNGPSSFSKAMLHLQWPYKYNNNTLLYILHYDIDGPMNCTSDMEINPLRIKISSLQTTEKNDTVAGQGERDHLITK
Sequence of integrin αvβ6 (P06756 891-1048 partner limits assumed): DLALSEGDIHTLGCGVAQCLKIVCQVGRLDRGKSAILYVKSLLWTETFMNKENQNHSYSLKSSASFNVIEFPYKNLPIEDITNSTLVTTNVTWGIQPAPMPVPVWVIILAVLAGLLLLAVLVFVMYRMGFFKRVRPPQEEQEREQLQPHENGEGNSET
Sequence of integrin αvβ6 (P18564 22-788): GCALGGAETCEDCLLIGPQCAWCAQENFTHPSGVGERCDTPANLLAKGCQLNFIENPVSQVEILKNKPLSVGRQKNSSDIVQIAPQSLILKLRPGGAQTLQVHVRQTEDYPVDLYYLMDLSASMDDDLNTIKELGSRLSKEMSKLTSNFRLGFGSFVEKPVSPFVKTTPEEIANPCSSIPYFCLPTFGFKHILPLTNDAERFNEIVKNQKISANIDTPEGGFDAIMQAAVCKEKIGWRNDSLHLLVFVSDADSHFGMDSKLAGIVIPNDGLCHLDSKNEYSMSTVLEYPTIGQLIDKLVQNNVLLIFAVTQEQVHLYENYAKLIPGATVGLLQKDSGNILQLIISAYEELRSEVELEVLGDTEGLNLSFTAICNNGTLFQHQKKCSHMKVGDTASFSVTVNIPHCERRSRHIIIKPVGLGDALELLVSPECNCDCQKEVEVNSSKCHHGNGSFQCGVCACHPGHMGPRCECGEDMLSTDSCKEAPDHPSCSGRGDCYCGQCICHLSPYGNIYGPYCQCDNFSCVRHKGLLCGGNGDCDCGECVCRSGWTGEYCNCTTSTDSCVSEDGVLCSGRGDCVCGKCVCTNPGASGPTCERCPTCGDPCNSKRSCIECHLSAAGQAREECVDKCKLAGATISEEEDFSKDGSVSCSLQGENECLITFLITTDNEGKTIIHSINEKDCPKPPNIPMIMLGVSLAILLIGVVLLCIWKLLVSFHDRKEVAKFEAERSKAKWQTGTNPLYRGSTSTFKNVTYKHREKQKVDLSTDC
Description: as §2

## CC(C)(C)c1cc(Br)cc([C@H](CC(=O)O)NC(=O)CNC(=O)c2cc(O)cc(NC3=NCC(O)CN3)c2)c1 (stereo partly drawn) [CWHM‐12]
[1]; day 27
  Collagen 1 protein reduction by Western blot compared with vehicle: threefold
[1]; vehicle 2.14 ± 0.39
  Collagen 1 densitometry normalized to HDAC2: 0.719 ± 0.13 arbitrary units
[2]
  serum creatinine at day 27: 0.15 mg/dL
[3]
  effect on ligand binding by non‐RGD‐binding integrins: nor does it affect ligand binding
[4]
  Masson trichrome staining, collagen deposition vs vehicle: reduced collagen deposition
  reduction in percent area stained for PDGFR‐β vs vehicle: 44%
  reduction in percent area stained for αSMA vs vehicle: 45%
[4]; day 27
  reduction in percent area stained by Sirius red vs vehicle: 68%
[4]; 27 days, vehicle 40.9 ± 1.6
  number of intact proximal tubules (LTL staining): 57.1 ± 1.7
Integrin α8β1
  IC50: 35 ± 16 nM
Integrin αvβ6; listed as CWHM−12
  IC50: 0.31 ± 0.14 nM
Integrin αvβ6
  IC50: < 1 nM
